In brackets after ≈: the same amount, converted by molar mass. Several values for one entry are separate records, joined by “and”; a condition that tells them apart may be missing. Identical values can stand only once. Like-named read-outs stand apart in the source and are kept apart here.
Experiments:
C. difficile = assay: microbe, parasite or virus in culture; format: cell-based, Clostridium difficile
Protocol: MIC testing for C. difficile was performed by Eurofins Panlabs Taiwan LTD based on modifications from the CLSI M11-A8 broth dilution method for Bacteroides fragilis susceptibility testing. Briefly, Reinforced Clostridial Medium (RCM) was pre-reduced by over-night incubation in an anaerobic chamber (80% N2, 10% CO2, and 10% H2) prior to use. MU1140 and variants were dissolved in 100% DMSO, diluted by 2-fold serial dilution in 100% DMSO, for a total of 11 concentrations. A 4 μL aliquot of each dilution was added to 96 μL RCM in wells of a 96 well plate using a Biomek FX instrument (Beckman Coulter, USA), followed by the addition of C. difficile suspension, in RCM, 100 μL/well. The final bacterial count was 2 x 10^5 to 1 x 10^6 colony forming units/mL, in 200 μL per assay well. […] Assay plates were incubated at 35°C for 46 to 48 hr in the anaerobic chamber (A35 Anaerobic Workstation, Don Whitley, UK). Following incubation, test plates were visually examined and each well was scored for growth then the MIC was recorded as the lowest concentration that results in complete inhibition of growth. Each test substance was evaluated in duplicate. Vehicle-control and vancomycin were used as blank and positive controls, respectively. The MIC values of the vancomycin controls were consistent with the historical data against test strains (data not shown).

[1] = Solubility 5% D-mannitol, 5% D-mannitol in water, visual assessment
Protocol: To that end, approximately 10 mg of each compound was weighed on a high-precision balance and dispensed into a 1.5 mL microfuge tube.

[2] = 1.0 mg/mL in water
Protocol: Five aliquots of each compound were prepared by dissolving them to 1.0 mg/mL in HPLC grade water (Fisher Scientific, USA). A total of 2 aliquots of the solution were placed in a 37°C stability chamber, and 2 aliquots were placed in a 50°C chamber. Samples were collected on days 0, 2 and 7, centrifuged at 12,000 x g for 5 min, and the supernatants were transferred to a fresh tube. Each sample was diluted 1:4 with 0.05% trifluoroacetic acid (TFA) and the purity and quantity were analyzed by HPLC as described above.
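Wherever Forced degradation Δ Conc is given: purity and concentration determined by HPLC on aqueous solutions kept in a stability chamber, with samples analyzed at day 0 and after incubation.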
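Wherever Forced degradation Δ Purity is given: purity and concentration determined by HPLC on aqueous solutions kept in a stability chamber, with samples analyzed at day 0 and after incubation.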

In the case of `C=C1NC(=O)[C@H](Cc2c[nH]c3ccccc23)NC(=O)[C@H](NC(=O)[C@H](CCCCN)NC(=O)[C@@H](N)C(C)C)CSC[C@@H](C(=O)N[C@H]2C(=O)N3CCC[C@H]3C(=O)NCC(=O)N[C@H](C(=O)N[C@@H](C)C(=O)N[C@@H](CC(N)=O)C(=O)N/C(=C\C)C(=O)NCC(=O)N[C@@H]3CSC[C@@H]4NC(=O)[C@H](Cc5ccc(O)cc5)NC(=O)[C@@H](CS/C=C\NC4=O)NC(=O)[C@H](CC(N)=O)NC(=O)[C@H](Cc4ccccc4)NC3=O)CS[C@H]2C)NC(=O)[C@H](CC(C)C)NC1=O` [OG716], the “MIC 50” value (C. difficile) is reported as 0.25 µg/mL (≈ 0.115 µM), the “MIC 90” value (C. difficile) is reported as 0.5 µg/mL (≈ 0.23 µM) and the “MIC Mode” value (C. difficile) is reported as 0.5 µg/mL (≈ 0.23 µM). For the same compound, the “MIC Range” value (C. difficile) was 0.25 to 0.5 µg/mL, the Minimum Inhibitory Concentration C. difficile 103-1 (C. difficile) was 0.25 µg/mL and the Minimum Inhibitory Concentration C. difficile 107-1 (C. difficile) was 0.5 µg/mL. It also gave a Minimum Inhibitory Concentration C. difficile ATCC 9689 (C. difficile) of 0.5 µg/mL, a Minimum Inhibitory Concentration C. difficile ATCC 43597 (C. difficile) of 0.25 µg/mL and a Minimum Inhibitory Concentration C. difficile ATCC BAA-1805 (C. difficile) of 0.25 µg/mL. It also gave a Minimum Inhibitory Concentration C. difficile ATCC BAA-1808 (C. difficile) of 0.25 µg/mL, a Minimum Inhibitory Concentration C. difficile ATCC BAA-1874 (C. difficile) of 0.5 µg/mL and a Minimum Inhibitory Concentration C. difficile ATCC BAA-1875 (C. difficile) of 0.5 µg/mL. For the same compound, the solubility [1] was 12 to 18 mg/mL (≈ 5520 to 8280 µM), the “Forced degradation Δ Conc” value ([2]; 2 Days at 37°C) was -7.4% and -7% and the “Forced degradation Δ Purity” value ([2]; 2 Days at 37°C) was -0.31%. The “Forced degradation Δ Conc” value ([2]; 2 Days at +50°C) was -16.9% and -17%, the “Forced degradation Δ Purity” value ([2]; 2 Days at +50°C) was -3.67% and the “Forced degradation Δ Conc” value ([2]; 7 Days at 37°C) was -14.8% and -15%. The “Forced degradation Δ Purity” value ([2]; 7 Days at 37°C) was -5.20%, the “Forced degradation Δ Conc” value ([2]; 7 Days at +50°C) was -47% and the “Forced degradation Δ Purity” value ([2]; 7 Days at +50°C) was -19.77%.
With `C=C1NC(=O)[C@H](Cc2c[nH]c3ccccc23)NC(=O)[C@H](NC(=O)[C@H](CCCCN)NC(=O)[C@@H](N)[C@@H](C)CC)CSC[C@@H](C(=O)N[C@H]2C(=O)N3CCC[C@H]3C(=O)NCC(=O)N[C@H](C(=O)N[C@@H](C)C(=O)N[C@@H](CC(N)=O)C(=O)N/C(=C\C)C(=O)NCC(=O)N[C@@H]3CSC[C@@H]4NC(=O)[C@H](Cc5ccc(O)cc5)NC(=O)[C@@H](CS/C=C\NC4=O)NC(=O)[C@H](CC(N)=O)NC(=O)[C@H](Cc4ccccc4)NC3=O)CS[C@H]2C)NC(=O)[C@H](CC(C)C)NC1=O` [OG706] the “MIC 50” value (C. difficile) was 0.5 µg/mL (≈ 0.228 µM), the “MIC 90” value (C. difficile) was 1 µg/mL (≈ 0.457 µM) and the “MIC Mode” value (C. difficile) was 0.5 µg/mL (≈ 0.228 µM). For the same compound, the “MIC Range” value (C. difficile) was 0.125 to 1 µg/mL, the Minimum Inhibitory Concentration C. difficile 103-1 (C. difficile) was 0.125 µg/mL and the Minimum Inhibitory Concentration C. difficile 107-1 (C. difficile) was 1 µg/mL. It also gave a Minimum Inhibitory Concentration C. difficile ATCC 9689 (C. difficile) of 0.5 µg/mL, a Minimum Inhibitory Concentration C. difficile ATCC 43597 (C. difficile) of 0.25 µg/mL and a Minimum Inhibitory Concentration C. difficile ATCC BAA-1805 (C. difficile) of 0.25 µg/mL. For the same compound, the Minimum Inhibitory Concentration C. difficile ATCC BAA-1808 (C. difficile) was 0.5 µg/mL, the Minimum Inhibitory Concentration C. difficile ATCC BAA-1874 (C. difficile) was 0.5 µg/mL and the Minimum Inhibitory Concentration C. difficile ATCC BAA-1875 (C. difficile) was 0.5 µg/mL. For the same compound, the solubility [1] was 18 to 24 mg/mL (≈ 8220 to 11000 µM), the “Forced degradation Δ Conc” value ([2]; 2 Days at 37°C) was -11.3% and -11% and the “Forced degradation Δ Purity” value ([2]; 2 Days at 37°C) was -1.15%. The “Forced degradation Δ Conc” value ([2]; 2 Days at +50°C) was -23%, the “Forced degradation Δ Purity” value ([2]; 2 Days at +50°C) was -8.05% and the “Forced degradation Δ Conc” value ([2]; 7 Days at 37°C) was -20%. For the same compound, the “Forced degradation Δ Purity” value ([2]; 7 Days at 37°C) was -6.64%, the “Forced degradation Δ Conc” value ([2]; 7 Days at +50°C) was -50.1% and -50% and the “Forced degradation Δ Purity” value ([2]; 7 Days at +50°C) was -21.46%.
For `C=C1NC(=O)[C@H](Cc2c[nH]c3ccccc23)NC(=O)[C@H](NC(=O)[C@H](CCCCN)NC(=O)[C@@H](N)[C@@H](C)CC)CSC[C@@H](C(=O)N[C@H]2C(=O)N3CCC[C@H]3C(=O)NCC(=O)N[C@H](C(=O)N[C@@H](C)C(=O)N[C@@H](CC(N)=O)C(=O)N/C(=C\C)C(=O)NCC(=O)N[C@@H]3CSC[C@@H]4NC(=O)[C@H](Cc5ccccc5)NC(=O)[C@@H](CS/C=C\NC4=O)NC(=O)[C@H](CC(N)=O)NC(=O)[C@H](Cc4ccccc4)NC3=O)CS[C@H]2C)NC(=O)[C@H](CC(C)C)NC1=O` [OG718], the “MIC 50” value (C. difficile) was 0.5 µg/mL (≈ 0.23 µM), the “MIC 90” value (C. difficile) was 1 µg/mL (≈ 0.46 µM) and the “MIC Mode” value (C. difficile) was 0.5 µg/mL (≈ 0.23 µM). The “MIC Range” value (C. difficile) was 0.25 to 1 µg/mL, the Minimum Inhibitory Concentration C. difficile 103-1 (C. difficile) was 0.25 µg/mL and the Minimum Inhibitory Concentration C. difficile 107-1 (C. difficile) was 0.5 µg/mL. It also gave a Minimum Inhibitory Concentration C. difficile ATCC 9689 (C. difficile) of 0.5 µg/mL, a Minimum Inhibitory Concentration C. difficile ATCC 43597 (C. difficile) of 0.5 µg/mL and a Minimum Inhibitory Concentration C. difficile ATCC BAA-1805 (C. difficile) of 0.5 µg/mL. The Minimum Inhibitory Concentration C. difficile ATCC BAA-1808 (C. difficile) was 0.25 µg/mL, the Minimum Inhibitory Concentration C. difficile ATCC BAA-1874 (C. difficile) was 0.5 µg/mL and the Minimum Inhibitory Concentration C. difficile ATCC BAA-1875 (C. difficile) was 1 µg/mL. The solubility [1] was greater than 24 mg/mL, the “Forced degradation Δ Conc” value ([2]; 2 Days at 37°C) was -9.1% and -9% and the “Forced degradation Δ Purity” value ([2]; 2 Days at 37°C) was -2.07%. For the same compound, the “Forced degradation Δ Conc” value ([2]; 2 Days at +50°C) was -29.4% and -29%, the “Forced degradation Δ Purity” value ([2]; 2 Days at +50°C) was -4.90% and the “Forced degradation Δ Conc” value ([2]; 7 Days at 37°C) was -21%. For the same compound, the “Forced degradation Δ Purity” value ([2]; 7 Days at 37°C) was -7.42%, the “Forced degradation Δ Conc” value ([2]; 7 Days at +50°C) was -43.8% and -44% and the “Forced degradation Δ Purity” value ([2]; 7 Days at +50°C) was -12.84%.
In the case of `C=C1NC(=O)[C@H](Cc2c[nH]c3ccccc23)NC(=O)[C@H](NC(=O)[C@H](CCCCN)NC(=O)[C@@H](N)CC(C)C)CSC[C@@H](C(=O)N[C@H]2C(=O)N3CCC[C@H]3C(=O)NCC(=O)N[C@H](C(=O)N[C@@H](C)C(=O)N[C@@H](CC(N)=O)C(=O)N/C(=C\C)C(=O)NCC(=O)N[C@@H]3CSC[C@@H]4NC(=O)[C@H](Cc5ccc(O)cc5)NC(=O)[C@@H](CS/C=C\NC4=O)NC(=O)[C@H](CC(N)=O)NC(=O)[C@H](Cc4ccccc4)NC3=O)CS[C@H]2C)NC(=O)[C@H](CC(C)C)NC1=O` [OG712], the “MIC 50” value (C. difficile) is reported as 0.25 µg/mL (≈ 0.114 µM), the “MIC 90” value (C. difficile) is reported as 0.5 µg/mL (≈ 0.228 µM) and the “MIC Mode” value (C. difficile) is reported as 0.25 µg/mL (≈ 0.114 µM). The “MIC Range” value (C. difficile) was 0.125 to 0.5 µg/mL, the Minimum Inhibitory Concentration C. difficile 103-1 (C. difficile) was 0.125 µg/mL and the Minimum Inhibitory Concentration C. difficile 107-1 (C. difficile) was 0.5 µg/mL. It also gave a Minimum Inhibitory Concentration C. difficile ATCC 9689 (C. difficile) of 0.5 µg/mL, a Minimum Inhibitory Concentration C. difficile ATCC 43597 (C. difficile) of 0.25 µg/mL and a Minimum Inhibitory Concentration C. difficile ATCC BAA-1805 (C. difficile) of 0.25 µg/mL. It also gave a Minimum Inhibitory Concentration C. difficile ATCC BAA-1808 (C. difficile) of 0.25 µg/mL, a Minimum Inhibitory Concentration C. difficile ATCC BAA-1874 (C. difficile) of 0.25 µg/mL and a Minimum Inhibitory Concentration C. difficile ATCC BAA-1875 (C. difficile) of 0.5 µg/mL. The solubility [1] was 12 mg/mL (≈ 5480 µM), the “Forced degradation Δ Conc” value ([2]; 2 Days at 37°C) was -4.6% and -5% and the “Forced degradation Δ Purity” value ([2]; 2 Days at 37°C) was -0.21%. The “Forced degradation Δ Conc” value ([2]; 2 Days at +50°C) was -8.7% and -9%, the “Forced degradation Δ Purity” value ([2]; 2 Days at +50°C) was -3.01% and the “Forced degradation Δ Conc” value ([2]; 7 Days at 37°C) was -9.3% and -9%. For the same compound, the “Forced degradation Δ Purity” value ([2]; 7 Days at 37°C) was -4.63% and the “Forced degradation Δ Conc” value ([2]; 7 Days at +50°C) was -45.2% and -45%.

Reference: PMC5997364, “OG716: Designing a fit-for-purpose lantibiotic for the treatment of Clostridium difficile infections” (PLoS ONE, 2018)
